The values that follow come from patent publication US6432913B1, “Polypeptide of protein p140 and DNAs encoding it” (Ono Pharmaceutical Co., Ltd., priority 1993, dated 2002).

The subject of assay [1] is protein p140. Kind of assay: Effects of various test compounds on p140 phosphorylation in rat L6 cells. The format is cell-based. Details: dose or concentration left out as unconfirmed.
Method: Rat L6 cells (1×10^5 cells/dish) were incubated in the Dulbecco's modified Eagle's medium (containing 10% BFS) at 37° C. under 5% CO2 atmosphere for 8 days. The cells used were skeletal muscle myoblast-differentiated muscle cells. After treating the differentiated skeletal muscle cells in serum-free Dulbecco's modified Eagle's media for 4 hr, various test compounds (10 mM; except insulin,1 mM) were added before the cultures were further incubated for a fixed interval. After the cultures were rinsed with ice-cold phosphate buffer, cells were lysed with phosphate buffer containing 0.5% octa (ethylene glycol) ether (C12E8). The pp140 was recovered by cephalobeads bound with phosphotyrosine antibody (Transformation Corp.) prior to elution and detection with phenyl phosphate and western blotting method, respectively. The band content of pp140 was determined by a densitometer using purified pp140 as the standard.
A further assay has as its system Rat L6 cells. Kind of assay: Enhancement activity on glucose uptake (3H-2-deoxyglucose) in rat L6 cells. The format is cell-based. The note with it: 2 hr, 5 mM 3H-2-deoxyglucose, initial 3 min.
Assay [2] deals with protein p140. Kind of assay: Tyrosine phosphorylation of p140 in rat L6 cells (anti-phosphotyrosine recovery, western blot, densitometry). It is filed as cell-based. Conditions: for p140 tyrosine phosphorylation (band content of pp140): rat L6 cells, amylin 100 pM 24 hr before insulin where added. The procedure: (§1) Using the Dubecco's modified Eagle's medium (containing 10% BFS), various cells (1×10^5 cells/dish) were incubated at 37° C. under 5% CO2 atmosphere for 5˜8 days. The cells were skeletal muscle cells differentiated from skeletal muscle myoblasts. The differentiated cells previously treated in serum-free Dulbecco's modified Eagle's medium for 4 hr was incubated with and without amylin (100 pM) before further incubation for 24 hr. Cultures treated with insulin (100 nM) thereafter were incubated for a fixed interval (10 or 60 min). After the cultures were rinsed with ice-cold phosphate buffer, cells were lysed with phosphate buffer containing 0.5% octa (ethylene glycol) ether (C12E8). The pp140 was recovered by sepharobeads bound with phosphothyrosine antibody (Transformation Corp.) prior to elution and detection with phenyl phosphate and western blotting method, respectively. The band content of pp140 was determined by a densitometer using purified pp140 as the standard. In the Table 1, cultures were treated with amylin (100 pM) 24 hr before insulin (100 nM) was added.
(In general: A western blot detects proteins with antibodies after separation by electrophoresis.)

Assay [3] deals with protein p140. As to the kind of experiment: Tyrosine phosphorylation of p140 in rat FaO hepatocytes. It is filed as cell-based. Conditions: for p140 tyrosine phosphorylation (band content of pp140): rat FaO cells, amylin 100 pM 24 hr before insulin where added. The procedure:
as §1

Assay [4] relates to protein p140. Kind of assay: Tyrosine phosphorylation of p140 in human A673 muscle cells. The format is cell-based. The note with it: for p140 tyrosine phosphorylation (band content of pp140): human A 678 cells, amylin 100 pM 24 hr before insulin where added. How it is done: as §1
Assay [5] concerns protein p140. As to the kind of experiment: Tyrosine phosphorylation of p140 in human HepG2 hepatocytes. Conditions: for p140 tyrosine phosphorylation (band content of pp140): human HepG2 cells, amylin 100 pM 24 hr before insulin where added. The format is cell-based.
In the next assay the test system is healthy rats. Kind of assay: Amylin administration to healthy rats for 7 days. It is filed as in vivo, rat. The note with it: amylin 0.1 mg/kg, i.p., t.i.d. An excerpt: (§2) These observations were accompanied by decreases in both incidences, glucose transporter 4 (Glut 4) quantity and synthesized glycogen content (less than 50% decrease compared to that of control group) with 1.7-fold increase in the blood glucose content.

The next assay relates to L6 cells. As to the kind of experiment: Glucose uptake in L6 cells with amylin administration. It is filed as cell-based. The note with it: L6 cells of rat skeletal muscle myoblasts.
Source text: as §2

Assay [6] deals with streptozotocin (STZ)-induced diabetic rats. Kind of assay: Effects of vitamin K5 on diabetes in streptozotocin (STZ) rats. The format is in vivo, rat. The note with it: vitamin K5 i.p. once daily for 3 consecutive days. How it is done: The diabetes model using streptozotocin (STZ) was established in male Wistar rats (STZ rats). After administering various intraperitoneal (i.p.) daily doses of vitamin K5 for 3 consecutive days in STZ rats (one administration per day), the glucose, neutral fat and cholesterol contents in blood were determined. Accordingly, STZ and normal rats were administered with the vehicle (physiological saline) at identical daily rate and duration prior to determination of similar hematic indices mentioned above. In addition, rats administered subcutaneously (s.c.) with insulin (8 U/kg) daily (one administration per day) for 3 consecutive days were used as positive controls.

Consider `O=C1NC(=S)SC1c1ccccc1` (stereo not shown) [5-phenylrhodanine], for which the “Amount of tyrosine phosphorylated p140” value with protein p140 [1] (0 min) worked out at 350 copy/cell; with protein p140 [1] (3 min), 1600 copy/cell; in the assay on protein p140 [1] (10 min), 1250 copy/cell; in the assay with protein p140 [1] (60 min), 650 copy/cell. In addition, the “Activity on glucose uptake” value with Rat L6 cells was 76.8 pmol/mg protein/min.
Consider `CC1=CC(=O)c2ccccc2C1=O` [Vitamin K3, 2-methyl-1,4-naphthoquinone], for which the “Amount of tyrosine phosphorylated p140” value stood at 350 copy/cell in the assay on protein p140 [1] (0 min), 3650 copy/cell in the assay on protein p140 [1] (3 min), 1800 copy/cell in the assay on protein p140 [1] (10 min) and 750 copy/cell in the assay with protein p140 [1] (60 min). Moreover, the “Activity on glucose uptake” value in the assay with Rat L6 cells is reported as 60.9 pmol/mg protein/min.
Consider `CC(C)CCOc1ccc(C=C2SC(=S)NC2=O)cc1` [5-(4-isoamyloxybenzylidene)rhodanine], for which the “Amount of tyrosine phosphorylated p140” value with protein p140 [1] (0 min) was 400 copy/cell; with protein p140 [1] (3 min) it was 3200 copy/cell; in the assay on protein p140 [1] (10 min), 2250 copy/cell; with protein p140 [1] (60 min), 1600 copy/cell. Further, the “Activity on glucose uptake” value in the assay on Rat L6 cells is on record as 98.4 pmol/mg protein/min.
Turning to amylin, in the assay on protein p140 [2] (rat L6 cells incubated with insulin within 10 min), the “Effect on insulin-induced incidence of pp140” value (shortened to “Effect”) is “antagonized”. Also, in the assay on protein p140 [3] (rat hepatocytes, FaO cells), the “Effect” value was “similarly confirmed”. For the same molecule, in the assay on protein p140 [4] (human muscle cells (A673 cells)), the “Effect” value was “similarly confirmed”. Moreover, in the assay with protein p140 [5] (human hepatocytes (HepG2 cells)), the “Effect” value is “similarly confirmed”. In the assay on healthy rats, the “glucose transporter 4 (Glut 4) quantity” value is “decreases”, the “increase in the blood glucose content” value was determined as 1.7 fold, the insulin receptor population entry was “dramatic decreases” and the secreted insulin quantity result is “dramatic decreases”. For the same molecule, the “synthesized glycogen content, decrease compared to control group” value in the assay on healthy rats is recorded as “less than 50%”. Besides, in the assay on L6 cells, the “glucose uptake in the cells” value is “decreased glucose uptake”.
As to Insulin, the “p140 tyrosine phosphorylation (band content of pp140)” value with protein p140 [2] (insulin 100 nM for 10 min) was found to be 2400; with protein p140 [2] (insulin 100 nM for 60 min), 1000; in the assay with protein p140 [3] (insulin 100 nM for 10 min), 2000; with protein p140 [3] (insulin 100 nM for 60 min), 1400; in the assay on protein p140 [4] (insulin 100 nM for 10 min) it was 2500; in the assay on protein p140 [4] (insulin 100 nM for 60 min) it was 1900. For the same molecule, the “p140 tyrosine phosphorylation (band content of pp140)” value in the assay with protein p140 [5] (insulin 100 nM for 10 min) came out at 2100; in the assay on protein p140 [5] (insulin 100 nM for 60 min), 1200. Also, the “Amount of tyrosine phosphorylated p140” value with protein p140 [1] (0 min) is reported as 350 copy/cell; in the assay on protein p140 [1] (3 min) it was 1850 copy/cell; with protein p140 [1] (10 min), 2600 copy/cell; in the assay with protein p140 [1] (60 min), 1650 copy/cell. In the assay with Rat L6 cells, the “Activity on glucose uptake” value was determined as 106.8 pmol/mg protein/min.
For the molecule `Cc1cc(N)c2ccccc2c1O` [Vitamin K5, 4-amino-2-methyl-1-naphthol], the “Amount of tyrosine phosphorylated p140” value worked out at 400 copy/cell with protein p140 [1] (0 min), 3850 copy/cell with protein p140 [1] (3 min), 2850 copy/cell in the assay with protein p140 [1] (10 min) and 1600 copy/cell in the assay with protein p140 [1] (60 min). Also, in the assay on Rat L6 cells, the “Activity on glucose uptake” value turned out to be 67.5 pmol/mg protein/min. Further, in assay [6], the “cholesterol content in blood” value was “elicited recovery of changes”. Further, in [6], the “glucose content in blood” value is listed as “elicited recovery of changes”. The “neutral fat content in blood” value in assay [6] is “elicited recovery of changes”.
